Among the data in patent US8829029B2, “Dual modulators of 5HT2A and D3 receptors” (Hoffmann-La Roche Inc., priority 2008, dated 2014) are Ki values, retold here.

Assay [1] concerns the target human 5-HT2A serotonin receptor (Homo sapiens (Human), UniProt P28223). Description: Radioligand binding ([3H]-ketanserin) to cloned human 5-HT2A receptor expressed in HEK-293 EBNA cells. The settings on record: membranes of transfected HEK-293 EBNA cells, 1.1 nM [3H]-ketanserin, 1 h at RT. The method, then:
The ability of the compounds to bind to the 5-HT2A, D3 and D2 receptors was determined using radioligand binding to cloned receptors selectively expressed in HEK-293 EBNA cells.
(§1) HEK-293 EBNA cells were transiently transfected with expression plasmids encoding for the human D2 or D3 dopamine- or for the human 5-HT2A serotonin receptor, respectively. The cells were harvested 48 h post-transfection, washed three times with cold PBS and stored at −80° C. prior to use. The pellet was suspended in cold 50 mM Tris-HCl buffer containing 10 mM EDTA (pH 7.4) and homogenized with a Polytron (Kinematica AG, Basel, Switzerland) for 20-30 sec at 12,000 rpm. After centrifugation at 48,000×g for 30 min at 4° C., the pellet was resuspended in cold 10 mM Tris-HCl buffer containing 0.1 mM EDTA (pH 7.4), homogenized, and centrifuged as above. This pellet was further resuspended in a smaller volume of ice cold 10 mM Tris-HCl buffer containing 0.1 mM EDTA (pH 7.4) and homogenized with a Polytron for 20-30 sec at 12,000 rpm. The protein content of this homogenate was determined with the Bio-Rad (Bradford) Protein Assay (Biorad Laboratories GmbH, München, Germany) according to the instructions of the manufacturer using gamma globulin as the standard. This homogenate was stored at −80° C. in aliquots and thawed immediately prior to use.
Aliquots of membrane preparations were thawed at RT, resuspended in assay buffer (D2, D3: 50 mM Tris-HCl, 120 mM NaCl, 5 mM MgCl2, 1 mM EDTA, 5 mM KCl, 1.5 mM CaCl2, pH=7.4; 5-HT2A: 50 mM Tris-HCl, 10 mM MgCl2, 1 mM EGTA, pH=7.4), homogenized with a Polytron for 20-30 sec at 12,000 rpm and adjusted to a final concentration of approximately 7.5 μg protein/well (D2, D3) and 15 μg protein/well (5-HT2A), respectively.
(§2) The binding affinity (Ki) of the compounds was determined using radioligand binding. Membranes were incubated in a total volume of 200 μl with a fixed concentration of radioligand (final concentration approximately 0.7 nM [^3H]-spiperone for D2, 0.5 nM [^3H]-spiperone for D3, and 1.1 nM [^3H]-ketanserin for 5-HT2A) and ten concentrations of test compound in ranging between 10 μM-0.1 nM for 1 h at RT. At the end of the incubation, the reaction mixtures were filtered on to unifilter 96-well white microplates with bonded GF/C filters (Packard BioScience, Zürich, Switzerland; preincubated for 1 h in 0.1% polyethylenimine (PEI) in assay buffer) with a Filtermate 196 harvester (Packard BioScience) and washed 3 times with cold assay buffer. The nonspecific binding was determined with equally composed reaction mixtures in the presence of 10 μM unlabelled spiperone. Per well 45 μl of Microscint 40 (Perkin Elmer, Schwerzenbach, Switzerland) was added, plates for sealed, shaken for 20 min and counted for 3 min on a Topcount Microplate Scintillation Counter (Canberra Packard SA, Zürich, Switzerland) with quenching correction.
(§3) The CPM value for each duplicate of a concentration of competing compound was averaged (y1), then the % specific binding was calculated according to the equation (((y1−non-specific)/(total binding−non-specific))×100). Graphs were plotted with the % specific binding using XLfit, a curve fitting program that iteratively plots the data using Levenburg Marquardt algorithm. The single site competition analysis equation used was y=A+((B−A)/(1+((x/C)^D))), where y is the % specific binding, A is the minimum y, B is the maximum y, C is the IC50, x is the log10 of the concentration of the competing compound and D is the slope of the curve (the Hill Coefficient). From these curves the IC50 (inhibition concentration at which 50% specific binding of the radioligand was displaced) and Hill coefficient were determined. The affinity constant (Ki) was calculated using the Cheng-Prusoff equation Ki=(IC50/1+([L]/Kd), where [L] is the concentration of radioligand and Kd is the dissociation constant of the radioligand at the receptor as determined by the saturation isotherm.

Assay [2] concerns the target human D3 dopamine receptor (Homo sapiens (Human), UniProt P35462). Description: Radioligand binding ([3H]-spiperone) to cloned human D3 receptor expressed in HEK-293 EBNA cells. The settings on record: membranes of transfected HEK-293 EBNA cells, 0.5 nM [3H]-spiperone, 1 h at RT. Here is the method: as §1, with “The pellet was suspended in cold 50 mM Tris-HCl buffer containing 10 mM EDTA (pH 7.4) and homogenized with a Polytron (Kinematica AG, Basel, Switzerland) for 20-30 sec at 12,000 rpm.” left out, “This pellet was further resuspended in a smaller volume of ice cold 10 mM Tris-HCl buffer containing 0.1 mM EDTA (pH 7.4) and homogenized with a Polytron for 20-30 sec at 12,000 rpm.” left out
as §2, §3

human D3 dopamine receptor, sequence (P35462 whole entry): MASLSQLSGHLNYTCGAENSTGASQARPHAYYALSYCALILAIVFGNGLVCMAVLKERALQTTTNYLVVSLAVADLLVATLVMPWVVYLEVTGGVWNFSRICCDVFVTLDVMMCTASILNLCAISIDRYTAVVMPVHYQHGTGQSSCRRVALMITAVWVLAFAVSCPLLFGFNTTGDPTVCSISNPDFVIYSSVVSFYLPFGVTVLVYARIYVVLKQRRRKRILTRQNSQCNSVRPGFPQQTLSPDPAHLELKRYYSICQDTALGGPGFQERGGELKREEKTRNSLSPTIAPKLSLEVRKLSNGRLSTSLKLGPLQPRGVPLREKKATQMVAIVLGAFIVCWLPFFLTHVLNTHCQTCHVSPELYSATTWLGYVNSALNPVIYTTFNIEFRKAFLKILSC

On to `O=C(N[C@H]1CC[C@H](CCN2CCC(c3noc4cc(F)ccc34)CC2)CC1)c1ccc(Cl)cc1` [Example 10, 4-Chloro-N-trans (4-{2-[4-(6-fluoro-benzo[d]isoxazol-3-yl)-piperidin-1-yl]-ethyl}-cyclohexyl)-benzamide], for which the values for the Ki in assay [1] and in assay [2] were 2.67 nM and 3.5 nM, respectively.

In the case of `O=C(N[C@H]1CC[C@H](CCN2CCC(c3noc4cc(F)ccc34)CC2)CC1)c1ccc(N2CCS(=O)(=O)CC2)cc1` [Example 11, 4-(1,1-Dioxo-1,6-thiomorpholin-4-yl)-N-trans (4-{2-[4-(6-fluoro-benzo[d]isoxazol-3-yl)-piperidin-1-yl]-ethyl}-cyclohexyl)-benzamide], the inhibitory constant (Ki) stood at 2.48 nM in assay [1] and 4.67 nM in assay [2].

Take `COc1cc(C(=O)N[C@H]2CC[C@H](CCN3CCC(c4noc5cc(F)ccc45)CC3)CC2)ccn1` [Example 13, N-trans (4-{2-[4-(6-Fluoro-benzo[d]isoxazol-3-yl)-piperidin-1-yl]-ethyl}-cyclohexyl)-2-methoxy-isonicotinamide]: the Ki in assay [1] is 1.62 nM; in assay [2], 3.74 nM.

Turning to `O=C(N[C@H]1CC[C@H](CCN2CCC(c3noc4cc(F)ccc34)CC2)CC1)c1ccc(N2CCCCC2)cc1` [Example 14, N-trans (4-{2-[4-(6-Fluoro-benzo[d]isoxazol-3-yl)-piperidin-1-yl]-ethyl}-cyclohexyl)-4-piperidin-1-yl-benzamide], the figures for the inhibitory constant (Ki) in assay [1] and in assay [2] were 2.6 nM and 8.69 nM, respectively.

Turning to `O=C(N[C@H]1CC[C@H](CCN2CCC(c3noc4cc(F)ccc34)CC2)CC1)C1COc2ccccc2O1` (stereo partly drawn) [Example 15, 2,3-Dihydro-benzo[1,4]dioxine-2-carboxylic acid trans (4-{2-[4-(6-fluoro-benzo[d]isoxazol-3-yl)-piperidin-1-yl]-ethyl}-cyclohexyl)-amide], the Ki in assay [1] amounted to 2.57 nM; in assay [2], 12.7 nM.

In the case of `Cc1ccn(CC(=O)N[C@H]2CC[C@H](CCN3CCC(c4noc5cc(F)ccc45)CC3)CC2)n1` [Example 16, N-trans (4-{2-[4-(6-Fluoro-benzo[d]isoxazol-3-yl)-piperidin-1-yl]-ethyl}-cyclohexyl)-2-(3-methyl-pyrazol-1-yl)-acetamide], the inhibitory constant (Ki) was 2.8 nM in assay [1] and 27.6 nM in assay [2].

`O=C(N[C@H]1CC[C@H](CCN2CCC(c3noc4cc(F)ccc34)CC2)CC1)c1ccc(-n2cccc2)cc1` [Example 17, N-trans(4-{2-[4-(6-Fluoro-benzo[d]isoxazol-3-yl)-piperidin-1-yl]-ethyl}-cyclohexyl)-4-pyrrol-1-yl-benzamide]: the inhibition constant (Ki) in assay [1] came to 2.45 nM; in assay [2] it was 2.61 nM.

In the case of `O=C(N[C@H]1CC[C@H](CCN2CCC(c3noc4cc(F)ccc34)CC2)CC1)C1(O)CC1` [Example 18, 1-Hydroxy-cyclopropanecarboxylic acid trans (4-{2-[4-(6-fluoro-benzo[d]isoxazol-3-yl)-piperidin-1-yl]-ethyl}-cyclohexyl)-amide], the results for the inhibitory constant (Ki) in assay [1] and in assay [2] were 1.44 nM and 5.92 nM, respectively.

With `O=C(N[C@H]1CC[C@H](CCN2CCC(c3noc4cc(F)ccc34)CC2)CC1)C1(C(F)(F)F)CCC1` [Example 19, 1-Trifluoromethyl-cyclobutanecarboxylic acid trans (4-{2-[4-(6-fluoro-benzo[d]isoxazol-3-yl)-piperidin-1-yl]-ethyl}-cyclohexyl)-amide], the Ki came out at 2.26 nM in assay [1] and 7.74 nM in assay [2].

For `O=C(CC(F)(F)F)N[C@H]1CC[C@H](CCN2CCC(c3noc4cc(F)ccc34)CC2)CC1` [Example 20, 3,3,3-Trifluoro-N-trans (4-{2-[4-(6-fluoro-benzo[d]isoxazol-3-yl)-piperidin-1-yl]-ethyl}-cyclohexyl)-propionamide], the Ki in assay [1] is 2.78 nM; in assay [2], 5.19 nM.

In the case of `COc1cc(CC(=O)N[C@H]2CC[C@H](CCN3CCC(c4noc5cc(F)ccc45)CC3)CC2)cc(OC)c1` [Example 21, 2-(3,5-Dimethoxy-phenyl)-N-trans (4-{2-[4-(6-fluoro-benzo[d]isoxazol-3-yl)-piperidin-1-yl]-ethyl}-cyclohexyl)-acetamide], the Ki was 2.95 nM in assay [1] and 8.77 nM in assay [2].

As to `CC1CN(c2ccc(C(=O)N[C@H]3CC[C@H](CCN4CCC(c5noc6cc(F)ccc56)CC4)CC3)cc2)CC(C)O1` (stereo partly drawn) [Example 22, 4-(2,6-Dimethyl-morpholin-4-yl)-N-trans (4-{2-[4-(6-fluoro-benzo[d]isoxazol-3-yl)-piperidin-1-yl]-ethyl}-cyclohexyl)-benzamide], the Ki worked out at 21.2 nM in assay [1] and 137 nM in assay [2].

As for `CC(=O)N[C@H]1CC[C@H](CCN2CCC(c3noc4ccc(F)cc34)CC2)CC1` [Example 24, N-trans(4-{2-[4-(5-Fluoro-benzo[d]isoxazol-3-yl)-piperidin-1-yl]-ethyl}-cyclohexyl)-acetamide], the inhibitory constant (Ki) in assay [1] amounted to 46.9 nM; in assay [2], 2.44 nM.

For `O=C(N[C@H]1CC[C@H](CCN2CCC(c3noc4ccc(F)cc34)CC2)CC1)c1ccc(N2CCOCC2)cc1` [Example 25, N-trans(4-{2-[4-(5-Fluoro-benzo[d]isoxazol-3-yl)-piperidin-1-yl]-ethyl}-cyclohexyl)-4-morpholin-4-yl-benzamide], the Ki is 22.3 nM in assay [1] and 9.04 nM in assay [2].

In the case of `O=C(N[C@H]1CC[C@H](CCN2CCC(c3noc4ccc(F)cc34)CC2)CC1)c1ccc(N2CCCCC2)cc1` [Example 27, N-trans(4-{2-[4-(5-Fluoro-benzo[d]isoxazol-3-yl)-piperidin-1-yl]-ethyl}-cyclohexyl)-4-piperidin-1-yl-benzamide], the figures for the inhibitory constant (Ki) in assay [1] and in assay [2] were 7 nM and 7.7 nM, respectively.

Take `CC1CN(c2ccc(C(=O)N[C@H]3CC[C@H](CCN4CCC(c5noc6ccc(F)cc56)CC4)CC3)cc2)CC(C)O1` (stereo partly drawn) [Example 28, 4-(2,6-Dimethyl-morpholin-4-yl)-N-trans (4-{2-[4-(5-fluoro-benzo[d]isoxazol-3-yl)-piperidin-1-yl]-ethyl}-cyclohexyl)-benzamide]: the inhibitory constant (Ki) in assay [1] was found to be 99.1 nM; in assay [2], 85.8 nM.

For `O=C(N[C@H]1CC[C@H](CCN2CCC(c3noc4ccc(F)cc34)CC2)CC1)c1ccc(N2CCS(=O)(=O)CC2)cc1` [Example 29, 4-(1,1-Dioxo-1,6,4-thiomorpholin-4-yl)-N trans-(4-{2-[4-(5-fluoro-benzo[d]isoxazol-3-yl)-piperidin-1-yl]-ethyl}-cyclohexyl)-benzamide], the Ki in assay [1] amounted to 12.4 nM; in assay [2] it was 5.94 nM.

On to `COCCC(=O)N[C@H]1CC[C@H](CCN2CCC(c3noc4cc(Cl)ccc34)CC2)CC1` [Example 32, N-trans(4-{2-[4-(6-Chloro-benzo[d]isoxazol-3-yl)-piperidin-1-yl]-ethyl}-cyclohexyl)-3-methoxy-propionamide], for which the Ki in assay [1] stood at 16.5 nM; in assay [2] it was 8.5 nM.

The Ki is a measure of affinity in units of concentration, obtained from inhibition or displacement.
